Patent US20090004726A1, “Inhibitor Tolerant Saccharomyces Cerevisiae Strain” (The United States of America, as represented by the …, priority 2007, published 2009)

What was measured:
[1] = system: furfural reduction activity of Y-50049 whole cell extracts; assay: Whole cell lysate enzyme assay after inhibitor induction (absorbance at 340 nm); format: biochemical, Saccharomyces cerevisiae; conditions: induction with 30 mM inhibitor for 3 h; 10 mM furfural substrate; 100 μM NADPH
[2] = system: Saccharomyces cerevisiae NRRL Y-12632; assay: Dose-dependent response of ethanologenic yeast to HMF (cell growth, OD600)
Description: A loopful of cells of each strain from the synthetic medium agar plate was transferred into a synthetic broth and incubated at 30° C. with agitation and maintained in the broth prior to inoculum preparation. Cells were harvested by centrifugation 8-15 hours after incubation and suspended in a fresh synthetic broth serving as the inoculum source. The initial OD at 620 nm of the inoculated medium for each culture was adjusted and recorded. Each strain was grown in a 15-ml test tube containing 3 ml of synthetic broth amended with inhibitory compounds in an incubator at 30° C. with agitation at 220 rpm under micro-oxic conditions. Cell growth was monitored by measuring optical absorbance at 620 nm using a spectrophotometer and samples were taken periodically.
For inhibitor application, cultures were supplemented with HMF at a series of final concentrations of 0, 10, 30, 60, and 120 mM, or combined inhibitors of furfural and HMF each at 12 mM, respectively. A non inhibitor treated culture served as a control. Cultures were monitored for cell growth at OD600 and samples were taken hourly for the first 16 hours and proper intervals afterward till the completion of the fermentation. Cell free supernatant was taken for metabolic profiling analysis using HPLC. […] Duplicated experiments were carried out for all treatments.

SMILES | induced furfural reduction activity coupled with cofactor NADPH [1] | cell growth ([2]; HMF at 120 mM) | cell growth ([2]; HMF at 10, 30 and 60 mM, compared with control) | lethal dose (cells completely repressed, no biological activity or HMF transformation till 128 hours) ([2]; synthetic medium, 30° C.) [mM]
O=Cc1ccc(CO)o1 [HMF, 5-hydroxymethylfurfural] | ranked the least | no cell growth was observed | delayed | 120
O=Cc1ccco1 [furfural] | strongest activities | – | – | –
